Laboratory results from patent US20050058745A1, “Use of Labiatae herb preparations for extending the flavor shelf life of malt beverages” (priority 2003, published 2005).

What was measured:
[1] = DCIP redox potential vs CA concentration, light beer; type: physicochemical; details: 4 hr, 2-4° C.
Description: (§1) The light beer was purchased at a local market and was 2 months old at time of use. Carnosic acid was added via a 1% ethanol solution made with pure CA. The levels of addition were 0, 5, 10, 15 and 20 ppm. The beers were opened, additions made and the beers were fobbed and crowned as described in Example 4. All analyses were done in triplicate using the DCIP method as described in Example 4. The samples were refrigerated for approx. 4 hr before being degassed and analyzed.

[2] = Trained panel flavor evaluation, commercial Pilsener, forced aging
Description: Separate solutions containing 2% pure rosmarinic acid or pure carnosic acid were prepared by weighing out 500 mg of each compound into separate volumetric flasks and diluting to 25 mL with 100% EtOH.
The beer used in this study was purchased at a local market with a production date of 36 days prior to use. Bottle additions were done as follows: • 1. A bottle of the beer was opened, struck sharply on the top to induce foaming (called “fobbing”), and crowned. The fobbing excludes air. The bottle was swirled and inverted. This sample was designated “No Additions.” • 2. Bottles of beer were opened and an aliquot of either the rosmarinic acid or carnosic acid solutions or a combination of each was added in an amount to give the correct addition rate. The bottle was then fobbed, as above and crowned. It was then swirled and inverted. The samples were designated appropriately to reflect the additive and concentration.
The bottles were placed in a heated room at 40±1° C. in the dark for varying amounts of time. After the allotted aging time, the bottles of beer were transferred to a dark refrigerator and stored at approximately 2° to 4° C. until they were analyzed. Additional bottles from the same code were kept unopened in 2° to 4° C. storage. These unopened samples from the same beer code were labeled “Fresh Control” used to provide fresh samples for the trained panel.
At the appropriate times, a trained 7- or 8-member panel evaluated the beers. In the first study panels, the fresh sample was not identified. Members rated beers for nine attributes that are characteristic for beer: Malt, Yeast, Estery, Hops, Sweet, Stale/Oxidized, Sour/Acid, Solvent (Chemical), and Bitterness. The panel never evaluated more than four beers at a session. The ratings are shown below.

[3] = DCIP redox potential vs CA concentration, semi-light beer; type: physicochemical; details: 4 hr, 2-4° C.
Description: as §1
The same experiment was carried out with a semi-light beer with a production code indicating it was 5 months old.

[4] = DCIP redox potential of the beer of Example 1, with added air; type: physicochemical; details: 20 ppm CA, Plus Air
Description: A 10 mg/mL solution of carnosic acid was prepared by taking 250 mg of 100% pure crystal by HPLC and diluting to a total volume of 25 mL with ethanol.
The bottle dosing process from Example 1 was modified to allow for the inclusion of air. • A bottle of the beer was opened, struck sharply on the top to induce foaming (called “fobbing”), and crowned. The fobbing excludes air. The bottle was swirled and inverted. This sample was designated No CA, No Air. • A bottle was opened and dosed with 7.1 mg of CA (20 ppm) to a 12 oz bottle from 710 μL of the above solution. After addition we gave the headspace two puffs of air, from a 25 mL squeeze bulb. The bottle was crowned, swirled and inverted without fobbing. […]
A standard solution of […] sodium salt (DCIP) at a concentration of 145 mg/dL was prepared by the method described in Methodensammlung der Mitteleuropäischen Brautechnischene Analösen Kommission, Vierte Ausgabe 2002, Editor Prof. […] The concentration of DCIP in mg/dL was measured by multiplying the mL of titer by 14.5. […]
The beers were stored in a 39° C. box for 14 days. […] The beers to be analyzed (the four treatments above) were degassed by centrifuging at 6,000 rpm for 15 min. […] Some of the degassed beer was poured to fill a 1 cm cuvette and placed in a spectrophotometer set to record the absorbance at 520 nm. […]
The “Redox Potential” was calculated by using the formula: [formula]

[5] = HPLC cis/trans ratio of isohumulone in beer stored at 40° C.; type: physicochemical; details: for Cis/Trans Ratio of Isohumulone: 20 ppm of each constituent
Description: One case of bottles was opened, 20 ppm carnosic acid and 20 ppm rosmarinic acid in the form of a propylene glycol solution was added and the bottles fobbed and crowned according to the procedure detailed in Example 1. An additional case was opened, fobbed and crowned in the same manner, and designated “Control”. All bottles were put in a 40° C. temperature controlled hot room. Samples of the above beer were taken at 0 time, 7, 21, 35, 44 and 58 days for HPLC hop acid analysis by a modification of the method of Burroughs and Williams [1999]. Beer samples (100 mL) were gently poured into tall-form beakers to avoid excessive foaming. Octanol (1-2 drops) was added to minimize foam, and the beer was sparged with helium for 10-15 minutes to degas them. The degased beer was transferred to a 2 mL autosampler vial and assayed according to the method in the reference.
The level of trans declines faster than the level of cis isomers. The trans isomers in this example are 28% of the total hop acids.

## CC(C)c1cc2c(c(O)c1O)[C@@]1(C(=O)O)CCCC(C)(C)[C@@H]1CC2 [CA, carnosic acid]
[1]; 5 ppm CA
  Redox Potential: 28.1
[1]; 10 ppm CA
  Redox Potential: 40.5
[1]; 15 ppm CA
  Redox Potential: 51.6
[1]; 20 ppm CA
  Redox Potential: 67.4
[2]; 5 ppm CA, 1 week 40° C.
  ranking (normalized sum of preference, 1 most preferred, 4 least preferred): 2.6
[2]; 10 ppm CA, 1 week 40° C.
  ranking (normalized sum of preference, 1 most preferred, 4 least preferred): 2.4
[2]; 20 ppm CA, 1 week 40° C.
  ranking (normalized sum of preference, 1 most preferred, 4 least preferred): 2.3
[2]; 20 ppm CA, 2 weeks 40° C.
  ranking (normalized sum of preference, 1 most preferred, 4 least preferred): 2.1
[3]; 5 ppm CA
  Redox Potential: 47.4
[3]; 10 ppm CA
  Redox Potential: 56.6
[3]; 15 ppm CA
  Redox Potential: 64.8
[3]; 20 ppm CA
  Redox Potential: 73.9
[4]
  Redox Initial: 37.0
[4]; 39° C.
  Redox After 14 Days: 33.8
[5]; 20 ppm CA, 40° C.
  time up to which the cis/trans level was helped to be maintained: about 35 days
[5]; Day 0, 40° C.
  Cis/Trans Ratio of Isohumulone: 2.699
[5]; Day 7, 40° C.
  Cis/Trans Ratio of Isohumulone: 2.850
[5]; Day 21, 40° C.
  Cis/Trans Ratio of Isohumulone: 3.947
[5]; Day 35, 40° C.
  Cis/Trans Ratio of Isohumulone: 5.450
[5]; Day 44, 40° C.
  Cis/Trans Ratio of Isohumulone: 7.974
[5]; Day 58, 40° C.
  Cis/Trans Ratio of Isohumulone: 9.863
